Data from patent US20240114943A1, “TASTE-IMPROVING COMPOSITIONS AND USES THEREOF” (AMAI PROTEINS LTD., priority 2020, published 2024).

Tests used:
[1] = Sensory expert panel time-intensity evaluation (sweetness intensity over time); type: in vivo, human
Protocol: The samples were evaluated by a panel of (˜15) prescreened, highly-sensitive, trained and calibrated expert tasters: The parameters quantified included Sweetness profile over time (Sweetness intensity with time after intake), Linger (Area under the sweetness intensity vs. time curve (AUC) from 60 to 150 or to 300 seconds), Linger time (Delta time from initial- to zero sweetness), Ratio of the Intensity at 60 seconds to the maximal intensity, Linger T50: Time to reach 50% of the maximal sweetness, Linger T10: Time to reach 10% of the maximal sweetness. The qualitative similarity of the taste to that of sugar was also evaluated, to describe attributes other than time-intensity profile.
Dilute citrate buffer was prepared in mineral water. […]
All micro-patched SP (MP-SP) were evaluated for sweetness intensity over time. The sensory panelists for the evaluation were screened for sensitivity for small differences in sweetness intensity and other basic tastes (saltiness, sourness, and bitterness), as well as sensory memory. These screening tests were performed according to ISO standards (IS 8586). The sensory expert panel was professionally trained and continuously assessed as to reproducibility and capability to differentiate between standard samples.
Sensory Method—Time Intensity (Measuring Sweetness Intensity Over Time): • 1. The products were tasted by an expert panel. • 2. Panelists were calibrated first with sugar solutions on a scale of 0-100 (magnitude estimation), while 0=not sweet at all. Calibration solutions used were 4% sucrose (defined as 50 sweetness) and 8% (defined as 100 sweetness grade). • 3. After calibration, the tasters preformed time-intensity evaluation for each sample according to the following stages: • a. After giving a signal, all tasters put the sample in their mouth, rolled it in their oral cavity for 2 seconds, and then swallowed. • b. After swallowing, the guide measured times, and at each time point, the taster was asked to grade the currently sensed sweetness intensity on the same scale (0-100) until the taste has disappeared. • c. The time periods examined were: 1, 2, 5, 7, 10, 15, 30, 45, 60, 90, 120, 150, 180, 210, 240, 270, and 300 seconds. • 4. Each panelist tasted a total of 6 products: SP standalone and four ratios of EGCG+SP tasted in varying orders. Sucrose solution (8Bx) was always tasted at the end. • 5. All the tested products were served using code numbers. • 6. Before and between samples, the tasters were requested to rinse their mouth with mineral water, eat an unsalted cracker and a cucumber, and drink water again. • 7. 11-15 tasters participated in these tests.

[2] = Meta-analysis of sensory panel meetings: four measures of lingering; type: in vivo, human; settings: summary of Example 4
Protocol: The meta-analysis was based on 44 sensory panel meetings and 55 MP agents. Statistical analysis was conducted. Four measures of lingering were defined: • AUC—the area under the time-intensity curve from 60 seconds to 300 seconds. • I60/max—the ratio between the intensity recorded at 60 seconds and the maximum intensity recorded. • T50—the time in seconds at which intensity recorded was 50% of the maximal intensity recorded • T10—the time in seconds at which intensity recorded was 10% of the maximal intensity recorded
Each graph refers to a single parameter. The graphs show means and standard errors for the MP agents that show significant improvement compared to the control (DM09 alone). The standard errors are calculated according to all the data in the Meta analysis (including data that are not shown in the graph).
The mean for the protein without MP agents is colored black.

For `OC[C@H]1O[C@@](CO)(O[C@H]2O[C@H](CO)[C@@H](O)[C@H](O)[C@H]2O)[C@@H](O)[C@@H]1O` [sucrose, reference compound], the “Typical linger of sugar” value ([1]; in vivo) was roughly 60 s.

With `CC1(C)[C@@H](O[C@H]2O[C@H](C(=O)O)[C@@H](O)[C@H](O)[C@H]2O[C@@H]2O[C@H](C(=O)O)[C@@H](O)[C@H](O)[C@H]2O)CC[C@]2(C)[C@H]3C(=O)C=C4[C@@H]5C[C@@](C)(C(=O)O)CC[C@]5(C)CC[C@@]4(C)[C@]3(C)CC[C@@H]12.N` [Mono Ammonium Glycyrrhizinate, monoammonium glycyrrhizinate, reference compound] the “Sweetness profile over time (sweetness-intensity-vs.-time curve, lingering effect)” value ([1]; DM09 0.02 mg/ml, 8 Bx sugar equivalence level, vs DM09 alone) was “decreasing the lingering effect”.

With “epigallocatechin-3-gallate [EGCG, reference compound]” the “Sweetness profile of DM09 (lingering effect)” value [2] was “decreasing the lingering effect” and the “Sweetness profile over time (sweetness intensity)” value ([1]; EGCG with MNEI 0.08 mg/ml, 8 Bx, vs MNEI alone and sucrose, FIG. 1) was “significantly improved the sweetness profile of SP”.

B1: DM09: designer monellin, SEQ ID NO: 3; the sweet protein (SP) of Example 5 (protein)
chain: GNWEIIDIGPFTQNLGKFAVDEANKIGQYGRLTFNKVIRPCMKKTIYENEGFREIKGYEYQLYVRASDKLFRADISEDYKTRGRKLLRFNGPVPPP
With B1 the “Linger time (Delta time (in sec) from initial to 0 sweetness intensity)” value ([1]; DM09 0.02 mg/ml, 8 Bx sugar equivalence level, vs DM09 alone, P<0.05) was “significantly higher than the delta time of DM09:lactisole:tannic acid:ammonium Glycyrrhizinate”, the “Linger time (Delta time (in sec) from initial to 0 sweetness intensity)” value ([1]; DM09 0.02 mg/ml, 8 Bx sugar equivalence level, vs DM09 alone, P<0.05, listed as DM09 only) was “significantly higher than the delta time of Quillija:DM09 (26:1)” and the “Linger (sweetness-intensity-vs.-time curve)” value ([1]; sweet protein with gymnemic acids and/or maltodextrin, FIG. 15) was “longest linger time”.

B2: MNEI: single chain Monellin (MNEI) reference protein, SEQ ID NO: 28 (protein)
chain: GEWEIIDIGPFTQNLGKFAVDEENKIGQYGRLTFNKVIRPCMKKTIYENEGFREIKGYEYQLYVYASDKLFRADISEDYKTRGRKLLRFNGPVPPP
With B2 the “Linger (AUC of the sweetness-intensity vs. time, 60-150 seconds)” value ([1]; MNEI, 8 Bx, P<0.05, FIG. 2) was “significantly higher than the AUC of EGCG:MNEI (60:1)”.
